What was measured:
[1] = system: human pancreatic islets; assay: Glucagon secretion in human pancreatic islets under low glucose (3 mM), ELISA; format: cell-based; conditions: 3 mM glucose
[2] = system: peak Na+ current (INa) in rat isolated pancreatic α-cells; assay: Peak Na+ current (INa) in isolated pancreatic α-cells, perforated patch-clamp; format: cell-based
Protocol: Acutely isolated pancreatic islets were allowed to recover overnight at 37° C./5% CO2 in Islet Media (RMPI 1640 supplemented with 10 mM HEPES, 1 mM sodium pyruvate, 10% FBS, 100 U/mL penicillin, 100 μg/mL streptomycin, 2 mM L-glutamine). The islets were resuspended and then centrifuged for 3 minutes at 200×g. The supernatant was discarded and 20 mL of filtered DPBS-EDTA was added (DPBS without Ca and Mg, 3 mM EDTA (G Biosciences), 0.5% BSA (Sigma), 1.5 mM dextrose (Sigma). The islets were incubated for 3 minutes at 37° C./5% CO2 and then centrifuged for 3 minutes at 200×g. The pellet was resuspended in 5 mL of pre-warmed Accutase (Sigma) and transferred into a 60 mm suspension culture dish and incubated for 3 minutes at 37° C./5% CO2. The digested islets were centrifuged for 3 minutes at 200×g to remove the accutase and the pellet was resuspended in 20 mL of room temperature DPBS-EDTA as defined above but with BSA increased to 4%. The digested islets were gently triturated 10 times with a flamed, glass Pasteur pipette and the suspension was then applied to a […] cell strainer. The resulting single cell suspension was centrifuged for 3 minutes at 200×g and the cells were resuspended in 2 mL of pre-warmed Islet Media. The number of live cells was counted and diluted to 1×10^5 with Islet Media. […]
Membrane potential and ion channel currents were recorded 24-72 hours after dispersion using the perforated patch configuration. […] Series resistance (Rs) was monitored using a voltage step from −70 mV to 0 mV (5 ms, 0.5 Hz) and was allowed to stabilize prior to beginning the experiment (Rs<30 MOhm).
The identity of the α-cell was confirmed using cell size (membrane capacitance <6 pF) and the presence of electrical activity in low (3 mM) extracellular glucose, which are hallmarks of dispersed α-cells. […] All recordings were made using pClamp 10.2 and were analyzed using Microsoft Excel 2003, Graphpad Prism7 or OriginPro7.
Recordings of ionic currents were made at 32° C. […] INa was measured using a voltage step to 0 mV (20 ms, 0.2 Hz) from a holding potential of either −70 mV or −90 mV. […]

Structure (SMILES) | maximal reduction of glucagon secretion as compared to the vehicle control ([1]; at 30 μM) | block of peak INa ([2]; 10 μM, holding potential −70 mV) | block of peak INa ([2]; 10 μM, holding potential −90 mV) | maximal reduction of glucagon secretion as compared to the vehicle control ([1]; at 3 μM) | block of peak INa ([2]; 1 μM, at −90 and -70 mV)
COc1ccccc1OCC(O)CN1CCN(CC(=O)Nc2c(C)cccc2C)CC1 (racemic) [Ranolazine, ±-N-(2,6-dimethylphenyl)-4-[2-hydroxy-3-(2-methoxyphenoxy)-propyl]-1-piperazineacetamide] | 36±4% | 25% | 10% |  | 
FC(F)(F)Oc1ccc(-c2ccc3nnc(C(F)(F)F)n3c2)cc1 [Compound A, 6-(4-(trifluoromethoxy)phenyl)-3-(trifluoromethyl)-[1,2,4]triazolo[4,3-α]pyridine] |  |  |  | 51±9% | 40

Source: patent US20140221286A1, “SODIUM CHANNEL BLOCKERS REDUCE GLUCAGON SECRETION” (Gilead Sciences, Inc., priority 2011, published 2014)
